In assay [1] the test system is DBI001. Nature of the assay: Biolog phenotype MicroArrays: components enhancing function (efficacy) against fungal or bacterial pathogens. In kind it is cell-based. The following applies: enhancing function of human-derived Janthinobacterium lividum.
For assay [2], the system named is DB00118. Nature of the assay: Antibiotic MIC tests. In kind it is cell-based, Janthinobacterium lividum. The following applies: strain DB00118. How it is done: (§1) The antibiotic resistance profile and MICs tests were performed using Janthinobacterium lividum grown from cultures purified and grown in vegitone LB broth.
Assay [3] concerns DB00121. The assay can be described thus: Antibiotic MIC tests. The format is cell-based, Janthinobacterium lividum. Conditions: strain DB00121. Here is the method:
as §1

Assay [4] relates to DB02378. The assay can be described thus: Antibiotic MIC tests. The following applies: strain DB02378. The format is cell-based, Janthinobacterium lividum. How it is done:
as §1

For assay [5], the system named is DB02473. The assay can be described thus: Antibiotic MIC tests. The format is cell-based, Janthinobacterium lividum. The following applies: strain DB02473. Here is the method:
as §1

Assay [6] deals with E. Coli ATCC25922. Nature of the assay: Antibiotic MIC tests. In kind it is cell-based. The following applies: Escherichia coli.
Where [7] appears, read: Janthinobacterium lividum, read-out: MIC.

≈ marks a conversion by molar mass, not a printed value. Where two headings read alike, the source gives them in different places. Where a SMILES comes first, the peptide text is derived from it. Some results are limits rather than exact numbers.

Regarding `CC(O)C(N)=O` (racemic) [D,L-Lactamide], the “Concentration Range of Efficacy” value in assay [1] was in the range of 0.1 to 1 mM.
Regarding `O=P(O)(O)OCC(O)CO` (racemic) [D,L-α-Glycerol Phosphate], the “Concentration Range of Efficacy” value in assay [1] is 2 to 20 mM.
Still for that read-out and setting: under `CC(O)CO` (stereo not drawn) [1,2-Propanediol] stands 2 to 20 mM; under `Nc1ncnc2c1ncn2C1CC(O)C(CO)O1` (stereo not drawn) [2-Deoxy Adenosine], 2 to 20 mM; under `O=CC[C@H](O)[C@H](O)CO` [2-Deoxy-DRibose], 1 to 5 mM.
Take `O=C[C@@H](O)[C@H](O[C@@H]1O[C@H](CO)[C@H](O)[C@H](O)[C@H]1O)[C@H](O)CO` [3-0-β-D-Galactopyranosyl-D Arabinose]: in assay [1], the “Concentration Range of Efficacy” value was in the range of 1 to 5 mM.
Regarding `C[C@H](N)C(=O)N[C@@H](CCC(=O)O)C(=O)O` [Ala-Glu] (H-Ala-Glu-OH), the “Concentration Range of Efficacy” value in assay [1] was in the range of 0.1 to 1 mM.
Consider `CC[C@H]1OC(=O)[C@H](C)[C@@H](O[C@H]2C[C@@](C)(OC)[C@@H](O)[C@H](C)O2)[C@H](C)[C@@H](O[C@@H]2O[C@H](C)C[C@H](N(C)C)[C@H]2O)[C@](C)(O)C[C@@H](C)CN(C)[C@H](C)[C@@H](O)[C@]1(C)O` [Azithromycin], for which the MIC turned out to be 8 mg/L (≈ 10.7 µM) in assay [2] (setting [7]); 0.5 mg/L (≈ 0.668 µM) in assay [3] (setting [7]); 2 mg/L (≈ 2.67 µM) in assay [4] (setting [7]); 1 mg/L (≈ 1.34 µM) in assay [5] (setting [7]); 8 mg/L (≈ 10.7 µM) in assay [6].
As for `CO/N=C(\C(=O)N[C@@H]1C(=O)N2C(C(=O)[O-])=C(C[N+]3(C)CCCC3)CS[C@H]12)c1csc(N)n1` [Cefepime], the MIC was 0.25 mg/L (≈ 0.52 µM) in assay [2] (setting [7]) and less than 0.063 mg/L in assay [6].
As for `CO/N=C(\C(=O)N[C@@H]1C(=O)N2C(C(=O)O)=C(CSc3nc(=O)c(=O)[nH]n3C)CS[C@H]12)c1csc(N)n1` [Ceftriaxone], the MIC was 0.5 mg/L (≈ 0.902 µM) in assay [2] (setting [7]); 0.25 mg/L (≈ 0.451 µM) in assay [3] (setting [7]); 0.25 mg/L (≈ 0.451 µM) in assay [4] (setting [7]); 0.5 mg/L (≈ 0.902 µM) in assay [5] (setting [7]); less than 0.063 mg/L in assay [6].
Take `CCC[C@@H]1C[C@@H](C(=O)N[C@@H]([C@H]2O[C@H](SC)[C@H](O)[C@@H](O)[C@H]2O)[C@H](C)Cl)N(C)C1` [Clindamycin]: the MIC in assay [2] (setting [7]) was 32 mg/L (≈ 75.3 µM); in assay [3] (setting [7]) it was 16 mg/L (≈ 37.6 µM); in assay [4] (setting [7]) it was 32 mg/L (≈ 75.3 µM); in assay [5] (setting [7]) it was 16 mg/L (≈ 37.6 µM); in assay [6], less than 64 mg/L.
Turning to `OC[C@@H](O)C(O)[C@H](O)CO` [D-Arabitol], the “Concentration Range of Efficacy” value in assay [1] lay within 1 to 5 mM.
With `OC[C@H]1O[C@@H](O[C@H]2[C@H](O)[C@@H](O)[C@H](O)O[C@@H]2CO)[C@H](O)[C@@H](O)[C@@H]1O` [D-Cellobiose], in assay [1], the “Concentration Range of Efficacy” value lay within 2 to 20 mM.
Turning to `O=C(CO)[C@@H](O)[C@H](O)[C@H](O)CO` [D-Fractose], the “Concentration Range of Efficacy” value in assay [1] is 2 to 20 mM.
The same measure, in the same setting: under `O=C(O)[C@H]1OC(O)[C@H](O)[C@@H](O)[C@@H]1O` (stereo partly drawn) [D-Glucoronic Acid] stands 2 to 20 mM.
In the case of `N[C@@H](C(=O)O)[C@@H](O)[C@H](O)[C@H](O)CO` [D-Glucosaminic Acid], the “Concentration Range of Efficacy” value in assay [1] lay within 2 to 20 mM.
On to `O=P(O)(O)O[C@H]1O[C@H](CO)[C@@H](O)[C@H](O)[C@H]1O` [D-Glucose-1-Phosphate], for which, in assay [1], the “Concentration Range of Efficacy” value fell in the range of 2 to 20 mM.
Consider `OC[C@H]1O[C@@](CO)(O[C@H]2O[C@H](CO)[C@@H](O)[C@H](O)[C@H]2O)[C@@H](O[C@H]2O[C@H](CO)[C@@H](O)[C@H](O)[C@H]2O)[C@@H]1O` [D-Melezitose], for which, in assay [1], the “Concentration Range of Efficacy” value is 1 to 5 mM.
`OC[C@H]1O[C@H](OCC2O[C@@H](O)[C@H](O)[C@@H](O)[C@@H]2O)[C@H](O)[C@@H](O)[C@H]1O` (stereo partly drawn) [D-Melibiose]: in assay [1], the “Concentration Range of Efficacy” value lay in the range of 2 to 20 mM.
As to `O=C(O)[C@@H](O)[C@H](O)C(=O)O` [D-Tartaric acid], the “Concentration Range of Efficacy” value in assay [1] was in the range of 1 to 5 mM.
With `OC[C@@H](O)[C@H](O)[C@H](O)[C@@H](O)CO` [Dulcitol], in assay [1], the “Concentration Range of Efficacy” value was in the range of 2 to 20 mM.
With `OC[C@H](O)C(O)[C@@H](O)CO` [L-Arabitol], in assay [1], the “Concentration Range of Efficacy” value lay within 1 to 5 mM.
Consider `C[C@H]1COc2c(N3CCN(C)CC3)c(F)cc3c(=O)c(C(=O)O)cn1c23` [Levofloxacin], for which the MIC in assay [2] (setting [7]) is 0.25 mg/L (≈ 0.692 µM); in assay [4] (setting [7]) it was 0.25 mg/L (≈ 0.692 µM); in assay [5] (setting [7]), 0.25 mg/L (≈ 0.692 µM); in assay [6], 0.063 mg/L (≈ 0.174 µM).
Consider `OC[C@@H](O)[C@@H](O[C@H]1O[C@H](CO)[C@@H](O)[C@H](O)[C@H]1O)[C@H](O)[C@@H](O)CO` [Maltitol], for which the “Concentration Range of Efficacy” value in assay [1] lay within 1 to 5 mM.
Regarding `CN(C)c1ccc(O)c2c1C[C@H]1C[C@H]3[C@H](N(C)C)C(O)=C(C(N)=O)C(=O)[C@@]3(O)C(O)=C1C2=O` [Minocycline], the figures for the MIC in assay [3] (setting [7]), in assay [5] (setting [7]) and in assay [6] were less than 0.063 mg/L, 0.25 mg/L (≈ 0.546 µM) and 0.25 mg/L (≈ 0.546 µM), respectively.
For the molecule `O=[N+]([O-])O` [Nitrate], the “Concentration Range of Efficacy” value in assay [1] is 0.1 to 1 mM.
Regarding `O=NO` [Nitrite], the “Concentration Range of Efficacy” value in assay [1] was 0.1 to 1 mM.
Turning to `OC[C@H]1O[C@H](OC[C@H]2OC(O)(CO)[C@@H](O)[C@@H]2O)[C@H](O)[C@@H](O)[C@@H]1O` (stereo partly drawn) [Palatinose], the “Concentration Range of Efficacy” value in assay [1] was in the range of 1 to 5 mM.
In the case of `OC[C@@]12OC[C@@H](O1)[C@@H](O)[C@@H](O)[C@@H]2O` [Sedoheptulosan], in assay [1], the “Concentration Range of Efficacy” value is 1 to 5 mM.
In the case of `OC[C@H]1O[C@H](OC[C@H]2O[C@H](OC[C@H]3O[C@H](O[C@]4(CO)O[C@H](CO)[C@@H](O)[C@@H]4O)[C@H](O)[C@@H](O)[C@@H]3O)[C@H](O)[C@@H](O)[C@H]2O)[C@H](O)[C@@H](O)[C@H]1O` [Stachyose], in assay [1], the “Concentration Range of Efficacy” value lay in the range of 1 to 5 mM.
For `O=C(CO)[C@@H](O[C@H]1O[C@H](CO)[C@@H](O)[C@H](O)[C@H]1O)[C@H](O)[C@H](O)CO` [Turanose], the “Concentration Range of Efficacy” value in assay [1] lay in the range of 1 to 5 mM.
On to `NC(N)=O` [Urea], for which, in assay [1], the “Concentration Range of Efficacy” value was 0.1 to 1 mM.
In the case of `OC[C@H]1O[C@@H]2O[C@H]3[C@H](O)[C@@H](O)[C@@H](O[C@H]4[C@H](O)[C@@H](O)[C@@H](O[C@H]5[C@H](O)[C@@H](O)[C@@H](O[C@H]6[C@H](O)[C@@H](O)[C@@H](O[C@H]7[C@H](O)[C@@H](O)[C@@H](O[C@H]8[C@H](O)[C@@H](O)[C@@H](O[C@H]9[C@H](O)[C@@H](O)[C@@H](O[C@H]1[C@H](O)[C@H]2O)O[C@@H]9CO)O[C@@H]8CO)O[C@@H]7CO)O[C@@H]6CO)O[C@@H]5CO)O[C@@H]4CO)O[C@@H]3CO` [g-Cyclodextrin], in assay [1], the “Concentration Range of Efficacy” value fell in the range of 1 to 5 mM.
Same read-out and setting: to `OC[C@@H](O)[C@@H](O)CO` [i-Erythritol] belongs 1 to 5 mM.
Turning to `OC[C@H]1O[C@@H]2O[C@H]3[C@H](O)[C@@H](O)[C@@H](O[C@H]4[C@H](O)[C@@H](O)[C@@H](O[C@H]5[C@H](O)[C@@H](O)[C@@H](O[C@H]6[C@H](O)[C@@H](O)[C@@H](O[C@H]7[C@H](O)[C@@H](O)[C@@H](O[C@H]1[C@H](O)[C@H]2O)O[C@@H]7CO)O[C@@H]6CO)O[C@@H]5CO)O[C@@H]4CO)O[C@@H]3CO` [α-Cyclodextrin], the “Concentration Range of Efficacy” value in assay [1] fell in the range of 1 to 5 mM.
As to `O=C1CCC(C(=O)O)O1` (stereo not drawn) [α-Hydroxy Glutaric Acid-g-Lactone], in assay [1], the “Concentration Range of Efficacy” value is 2 to 20 mM.
`COC1OC(CO)C(O)C(O)C1O` [α-Methyl-D-Galactoside]: the “Concentration Range of Efficacy” value in assay [1] lay within 2 to 20 mM.
Same read-out and setting: under `CO[C@H]1O[C@H](CO)[C@@H](O)[C@H](O)[C@H]1O` [α-Methyl-D-Glucoside] stands 1 to 5 mM; under `COC1OC(CO)C(O)C(O)C1O` [α-Methyl-D-Mannoside], 1 to 5 mM; under `OC[C@H]1O[C@@H]2O[C@H]3[C@H](O)[C@@H](O)[C@@H](O[C@H]4[C@H](O)[C@@H](O)[C@@H](O[C@H]5[C@H](O)[C@@H](O)[C@@H](O[C@H]6[C@H](O)[C@@H](O)[C@@H](O[C@H]7[C@H](O)[C@@H](O)[C@@H](O[C@H]8[C@H](O)[C@@H](O)[C@@H](O[C@H]1[C@H](O)[C@H]2O)O[C@@H]8CO)O[C@@H]7CO)O[C@@H]6CO)O[C@@H]5CO)O[C@@H]4CO)O[C@@H]3CO` [β-Cyclodextrin], 1 to 5 mM.
Same read-out and setting: to `CO[C@@H]1O[C@H](CO)[C@@H](O)[C@H](O)[C@H]1O` [β-Methyl-D-Galactoside] belongs 1 to 5 mM; to `CO[C@@H]1O[C@H](CO)[C@@H](O)[C@H](O)[C@H]1O` [β-Methyl-D-Glucoside], 2 to 20 mM; to `CO[C@@H]1O[C@H](C(=O)O)[C@@H](O)[C@H](O)[C@H]1O` [β-Methyl-D-Glucuronic Acid], 1 to 5 mM.
`COC1OCC(O)C(O)C1O` [β-Methyl-D-Xyloside]: in assay [1], the “Concentration Range of Efficacy” value lay in the range of 1 to 5 mM.
For the molecule Chondroitin Sulfate C, in assay [1], the “Concentration Range of Efficacy” value lay within 1 to 5 mM.
Same read-out and setting: under Glycogen stands 1 to 5 mM.
For the molecule Inulin, in assay [1], the “Concentration Range of Efficacy” value lay within 1 to 5 mM.
On the same count and under the same terms, under Laminarin stands 1 to 5 mM; under Maltotriose, 2 to 20 mM.
As for Mannan, in assay [1], the “Concentration Range of Efficacy” value was in the range of 1 to 5 mM.
Consider Neomycin, for which the minimum inhibitory concentration (MIC) in assay [2] was determined as 2 mg/L; in assay [3], 1 mg/L; in assay [4] it was 2 mg/L; in assay [5], 2 mg/L.
For Pectin, the “Concentration Range of Efficacy” value in assay [1] was 1 to 5 mM.
Same read-out and setting: to Tween 40 belongs 2 to 20 mM; to dextrin, 1 to 5 mM.

Broadly, the MIC is the lowest concentration found to suppress growth.

The record behind these values is patent US12064459B2, “Compositions and methods for improving skin health and for the treatment and prevention of diseases, disorders and conditions associated with pathogenic microbes” (priority 2019, dated 2024).
